Test results: PMC4549746, “Zearalenone in the Intestinal Tissues of Immature Gilts Exposed per os to Mycotoxins” (Toxins, 2015)

Experiment: Average daily gains and feed conversion of gilts during 42-day per os exposure
Type: in vivo
Procedure: The animals were divided into an experimental group (E, n = 18) and a control group (C, n = 21). Group E animals were orally administered ZEN at 40 μg/kg BW. Group C pigs were fed a placebo. The animals were fed complete diets in a restricted feeding regimen (Table 1). The daily dose of ZEN (40 µg/kg BW) was administered to each animal individually, which corresponds to exposure to 957–1014 µg ZEN/kg of a complete diet, depending on daily feed intake. Zearalenone was biosynthesized, purified and standardized by the Department of Chemistry of the Poznań University of Life Sciences. The experiment covered a period of 42 days. The mycotoxin was administered per os daily, in gelatine capsules before the morning feeding. The ZEN dose was adjusted to the body weight of the experimental animals. The mycotoxin was administered in capsules to prevent problems associated with uneven feed intake. Mycotoxin samples were diluted in 300 μL of 96% ethyl alcohol (96% ethyl alcohol, SWW 2442-90, Polskie Odczynniki Chemiczne SA, Gliwice, Poland) to the required dose level (based on body weight). Final solutions were stored at room temperature for 12 h to evaporate the solvent. The animals were weighed every 7 days to update mycotoxin doses for each gilt. Three animals from the experimental group and the control group each were sacrificed on Days 1, 7, 14, 21, 28, 35 and 42 (a total of 6 gilts in each week of exposure), excluding day 1, when only 3 control group animals were scarified. Every week, tissue samples were collected from the porcine gastrointestinal tract (duodenum, first and middle sections, jejunum, ileum, cecum, ascending colon, transverse colon, descending colon, middle section, and the liver, left lobe). Tissue samples were collected from the whole intestinal cross-sections.

[1] = Group E, ZEN 40 μg/kg BW daily per os, throughout the experiment (42 days)

C[C@H]1CCCC(=O)CCC/C=C/c2cc(O)cc(O)c2C(=O)O1 [ZEN, zearalenone]
differences in average daily gains between groups (Group E (ZEN 40 μg/kg BW daily per os) vs Group C (placebo)): No significant differences
average daily gains [1]: 602 g
feed per kg of BW gain [1]: 2.61 kg feed per kg of BW gain
